This is an account of results in US12480944B2, “Detection and analysis of cells” (First Light Diagnostics, Inc., priority 2018, dated 2025).

One experiment has as its system E. coli. Set-up: key: previously determined antibiotic resistance (shown with “X”); “IR” = Intrinsically resistant. The settings on record: cited from earlier work.
A further experiment has as its system P. aeruginosa. The arrangement: key: previously determined antibiotic resistance (shown with “X”); “IR” = Intrinsically resistant. As to conditions: cited from earlier work.
The subject of another experiment is K. oxytoca. Set-up: key: previously determined antibiotic resistance (shown with “X”); “IR” = Intrinsically resistant. As to conditions: cited from earlier work.
The next experiment relates to K. pneumoniae. Set-up: key: previously determined antibiotic resistance (shown with “X”); “IR” = Intrinsically resistant. The settings on record: cited from earlier work.
Another experiment relates to P. mirabilis. Set-up: key: previously determined antibiotic resistance (shown with “X”); “IR” = Intrinsically resistant. As to conditions: cited from earlier work.
Experiment [1] relates to K. pneumonaie strain in clinical urine sample BIUR0084. Briefly: Automated MultiPath AST cartridge on clinical urine specimen, Example 8. The class given is cell-based. As to conditions: clinical urine BIUR0084 (K. pneumoniae), fold growth value of 2; for growth call at all antibiotic concentrations: 2 concentrations; for sensitive/resistant call by MulitPath: 4 h growth at 35° C., matched CLSI BMD.

Setting [2] is: strain K. pneumoniae ATCC 13883.
[3] abbreviates: strain P. aeruginosa ATCC 27853.

Like-named read-outs stand apart in the source and are kept apart here.

Consider `C[C@@H](O)[C@H]1C(=O)N2C(C(=O)O)=C(S[C@@H]3CN[C@H](C(=O)N(C)C)C3)[C@H](C)[C@H]12` [Meropenem], for which the “previously determined antibiotic resistance” value (“previously” for short) with E. coli (strain E. coli ATCC 25922), in the experiment on E. coli (strain E. coli CDC0001), with E. coli (strain E. coli CDC0006), in the experiment on E. coli (strain E. coli CDC0020), in the experiment with E. coli (strain E. coli CDC0085) and with E. coli (strain E. coli CDC0114) was “X” throughout. The “previously” value in the experiment on P. aeruginosa (strain P. aeruginosa CDC0105), in the experiment with P. aeruginosa (strain P. aeruginosa CDC0111), in the experiment with P. aeruginosa (strain P. aeruginosa CDC0232), in the experiment with P. aeruginosa (strain P. aeruginosa CDC0242), with P. aeruginosa (strain P. aeruginosa CDC0247) and in the experiment with K. oxytoca (strain K. oxytoca CDC0028) was “X” each time. Further, the “previously” value with K. oxytoca (strain K. oxytoca CDC0071), in the experiment with K. oxytoca (strain K. oxytoca CDC0147), in the experiment on K. pneumoniae (setting [2]), in the experiment with K. pneumoniae (strain K. pneumoniae CDC0010), in the experiment on K. pneumoniae (strain K. pneumoniae CDC0016) and with K. pneumoniae (strain K. pneumoniae CDC0034) was “X” each time. In addition, the “previously” value in the experiment with K. pneumoniae (strain K. pneumoniae CDC0043), in the experiment on K. pneumoniae (strain K. pneumoniae CDC0076), with K. pneumoniae (strain K. pneumoniae CDC0080), in the experiment with P. mirabilis (strain P. mirabilis ATCC 7002), with P. mirabilis (strain P. mirabilis CDC0029) and in the experiment with P. mirabilis (strain P. mirabilis CDC0059) was “X” throughout. The “previously” value with P. mirabilis (strain P. mirabilis CDC0155), in the experiment on P. mirabilis (strain P. mirabilis CDC0156) and in the experiment on P. mirabilis (strain P. mirabilis CDC0159) was “X” in each case.
As for `Cc1nnc(SCC2=C(C(=O)O)N3C(=O)[C@@H](NC(=O)Cn4cnnn4)[C@H]3SC2)s1` [Cefazolin], in experiment [1], the “growth call at all antibiotic concentrations” value is listed as “growth” and the “sensitive/resistant call by MulitPath” value was “resistant”.
Regarding `CC(C)(O/N=C(\C(=O)N[C@@H]1C(=O)N2C(C(=O)[O-])=C(C[n+]3ccccc3)CS[C@H]12)c1csc(N)n1)C(=O)O` [Ceftazidime], the “previously” value in the experiment with E. coli (strain E. coli ATCC 25922), in the experiment with E. coli (strain E. coli CDC0020), in the experiment on E. coli (strain E. coli CDC0067), in the experiment on E. coli (strain E. coli CDC0084), with E. coli (strain E. coli CDC0086) and in the experiment with E. coli (strain E. coli CDC0350) was “X” each time. Besides, the “previously” value in the experiment on P. aeruginosa (setting [3]), with P. aeruginosa (strain P. aeruginosa CDC0105), in the experiment on P. aeruginosa (strain P. aeruginosa CDC0111), with P. aeruginosa (strain P. aeruginosa CDC0242), with P. aeruginosa (strain P. aeruginosa CDC0251) and in the experiment with P. aeruginosa (strain P. aeruginosa CDC0253) was “X” in each case. The “previously” value in the experiment with K. oxytoca (strain K. oxytoca CDC0028), with K. oxytoca (strain K. oxytoca CDC0071), in the experiment with K. oxytoca (strain K. oxytoca CDC0147), in the experiment on K. pneumoniae (setting [2]), with K. pneumoniae (strain K. pneumoniae CDC0010) and in the experiment with K. pneumoniae (strain K. pneumoniae CDC0016) was “X” each time. Besides, the “previously” value in the experiment with K. pneumoniae (strain K. pneumoniae CDC0041), in the experiment with K. pneumoniae (strain K. pneumoniae CDC0107), in the experiment on K. pneumoniae (strain K. pneumoniae CDC0126), in the experiment with K. pneumoniae (strain K. pneumoniae CDC0160), in the experiment on P. mirabilis (strain P. mirabilis ATCC 7002) and with P. mirabilis (strain P. mirabilis CDC0029) was “X” in each case. Moreover, the “previously” value with P. mirabilis (strain P. mirabilis CDC0059), in the experiment on P. mirabilis (strain P. mirabilis CDC0155), in the experiment with P. mirabilis (strain P. mirabilis CDC0156) and in the experiment on P. mirabilis (strain P. mirabilis CDC0159) was “X” each time.
As for `O=C(O)c1cn(C2CC2)c2cc(N3CCNCC3)c(F)cc2c1=O` [Ciprofloxacin], the “previously” value in the experiment with E. coli (strain E. coli ATCC 25922), in the experiment on E. coli (strain E. coli BAA-2452), with E. coli (strain E. coli BAA-2469), in the experiment with E. coli (strain E. coli BAA-2471), in the experiment on E. coli (strain E. coli CDC0017) and in the experiment on E. coli (strain E. coli CDC0019) was “X” each time. The “previously” value with P. aeruginosa (setting [3]), in the experiment on P. aeruginosa (strain P. aeruginosa CDC0251), in the experiment with P. aeruginosa (strain P. aeruginosa CDC0253), in the experiment on P. aeruginosa (strain P. aeruginosa CDC0259), with P. aeruginosa (strain P. aeruginosa CDC0261) and in the experiment on P. aeruginosa (strain P. aeruginosa CDC0262) was “X” in each case. Moreover, the “previously” value in the experiment on K. oxytoca (strain K. oxytoca CDC0028), with K. oxytoca (strain K. oxytoca CDC0071), in the experiment with K. oxytoca (strain K. oxytoca CDC0147), in the experiment on K. pneumoniae (setting [2]), in the experiment on K. pneumoniae (strain K. pneumoniae CDC0016) and with K. pneumoniae (strain K. pneumoniae CDC0034) was “X” in each case. The “previously” value with K. pneumoniae (strain K. pneumoniae CDC0076), in the experiment with K. pneumoniae (strain K. pneumoniae CDC0117), with K. pneumoniae (strain K. pneumoniae CDC0126), in the experiment on P. mirabilis (strain P. mirabilis ATCC 7002), in the experiment with P. mirabilis (strain P. mirabilis CDC0029) and in the experiment on P. mirabilis (strain P. mirabilis CDC0059) was “X” throughout. Further, the “previously” value with P. mirabilis (strain P. mirabilis CDC0155), in the experiment with P. mirabilis (strain P. mirabilis CDC0156) and in the experiment with P. mirabilis (strain P. mirabilis CDC0159) was “X” in each case.
Regarding Trimethoprim/Sulfamethoxazole, in experiment [1], the “growth call at all antibiotic concentrations” value was “growth”. Further, the “sensitive/resistant call by MulitPath” value in experiment [1] is recorded as “resistant”. The “previously” value in the experiment with E. coli (strain E. coli ATCC 25922), with E. coli (strain E. coli BAA-2469), with E. coli (strain E. coli BAA-2471), with E. coli (strain E. coli CDC0017), in the experiment with E. coli (strain E. coli CDC0019) and in the experiment with E. coli (strain E. coli CDC0084) was “X” in each case. For the same compound, the “previously” value in the experiment on P. aeruginosa (setting [3]), with P. aeruginosa (strain P. aeruginosa CDC0105), in the experiment with P. aeruginosa (strain P. aeruginosa CDC0111), in the experiment with P. aeruginosa (strain P. aeruginosa CDC0232), in the experiment with P. aeruginosa (strain P. aeruginosa CDC0242) and in the experiment with P. aeruginosa (strain P. aeruginosa CDC0247) was “IR” each time. The “previously” value with P. aeruginosa (strain P. aeruginosa CDC0251) was “IR”; in the experiment with P. aeruginosa (strain P. aeruginosa CDC0253) it was “IR”; in the experiment on P. aeruginosa (strain P. aeruginosa CDC0259) it was “IR”; with P. aeruginosa (strain P. aeruginosa CDC0261), “IR”; in the experiment on P. aeruginosa (strain P. aeruginosa CDC0262) it was “IR”; in the experiment on K. oxytoca (strain K. oxytoca CDC0028), “X”. For the same compound, the “previously” value in the experiment with K. oxytoca (strain K. oxytoca CDC0071), with K. oxytoca (strain K. oxytoca CDC0147), with K. pneumoniae (setting [2]), in the experiment on K. pneumoniae (strain K. pneumoniae CDC0010), with K. pneumoniae (strain K. pneumoniae CDC0016) and in the experiment on K. pneumoniae (strain K. pneumoniae CDC0107) was “X” each time. In addition, the “previously” value with K. pneumoniae (strain K. pneumoniae CDC0117), in the experiment on K. pneumoniae (strain K. pneumoniae CDC0126), with P. mirabilis (strain P. mirabilis ATCC 7002), in the experiment on P. mirabilis (strain P. mirabilis CDC0029), with P. mirabilis (strain P. mirabilis CDC0059) and with P. mirabilis (strain P. mirabilis CDC0155) was “X” in each case. In addition, the “previously” value in the experiment with P. mirabilis (strain P. mirabilis CDC0156) and in the experiment with P. mirabilis (strain P. mirabilis CDC0159) was “X” each time.
